Laboratory results published in patent publication US10314307B2, “(S)-abscisic acid derivatives for improving plant stress tolerance” (Valent BioSciences Corporation, priority 2015, dated 2019).

Columns and labels:
Assay type in all cases: in vivo
[1] = test system: corn plants, 111 day, central corn belt variety; assay: Corn plant chilling (growth rate); details: for Maintenance of growth under cold (10° C.) conditions: S-ABA even at 1000 mg/l (113.7 g/acre); for Growth Rate, Greenhouse 7-9 d post spray: after chilling; for Growth Rate, Growth Chamber 10° C. 2-7 d post spray: during chilling at 10° C.
Procedure: Corn seeds of a 111 day, central corn belt variety were planted in 2-quart pots filled with medium. After the corn grew for 10 days in the greenhouse at 24±3° C. (V2 to V3 growth stage), the plants received a foliar spray application of aqueous solutions of the test compounds containing 0.25% non-ionic surfactant with a volume equivalent to 30 gallons/acre. After spraying, plants were moved back to the greenhouse for 2 days, then moved to a growth chamber kept at 10° C. with a 16:8 light:dark cycle (cold treatment). After 5 days in the cold, plants were returned to the greenhouse for 2 days before being harvested destructively. Results of the studies comparing the growth rate of plants treated with S-ABA with 3′-methyl-(S)-ABA during the experiment are shown in Table 3. In additional studies, the effect of S-ABA and 3′-propargyl-(S)-ABA on corn growth rate in chilling studies was compared.

[2] = test system: corn plants, commercial 111 day, central corn belt variety; assay: Corn stomatal conductance; details: for Average Stomatal Conductance (% of Control), 6 DAS: 6 days after spraying; for Average Stomatal Conductance (% of Control), 16 DAS: 16 days after spraying; for Relative potency resulting in a 25% reduction in transpiration, times that seen with S-ABA: regression of the data in Table 5
Procedure: (§1) In this greenhouse experiment, foliar spray treatments containing 3′-methyl-(S)-abscisic acid, 3′-propargyl-(S)-abscisic acid or (S)-abscisic acid were applied to corn plants to evaluate their effect on gas exchange, as measured through stomatal conductance. Corn plants of a commercial, 111 day, central corn belt variety were grown in the greenhouse under optimal conditions for five weeks and were size-matched into ten groups of five plants. Using an aerosol sprayer, each group was sprayed to drip (25 milliliters per plant) with solutions containing a non-ionic surfactant (0.125%, v/v) and water (control), 2.5 mg, 7.5 mg or 25 mg/plant 3′-methyl-(S)-abscisic acid, or 2.5 mg, 7.5 mg or 25 mg/plant 3′-propargyl-(S)-abscisic acid, or 7.5 mg, 25 mg or 75 mg/plant (5)-ABA, respectively. After spraying, plants were returned to the greenhouse for the duration of the experiment. Stomatal conductance was measured using an AP4 porometer (Delta T Devices, Cambridge, UK) and the conductance for each plant was recorded at approximately the same time of day (˜10 AM) prior to treatment application as well as 1, 2, 5, 6, 9 and 16 days post-spraying.

[3] = test system: corn plants, commercial 111 day, central corn belt variety; assay: Corn plant leaf rolling assay and shoot fresh weight under drought; details: for Shoot Fresh Weight, 15 DAS: 12 days drought then 3 days watering; for Average # of Rolled Leaves/Plant, 5 DAS / Average # of Rolled Leaves/Plant, 6 DAS / Average # of Rolled Leaves/Plant, 8 DAS: water withheld; for Average # of Rolled Leaves/Plant, 5 DAS: 5 days after spraying; for Average # of Rolled Leaves/Plant, 6 DAS: 6 days after spraying; for Average # of Rolled Leaves/Plant, 8 DAS: 8 days after spraying
Procedure: as §1, with “post-spraying. This study was conducted as described above with the following the exceptions. After spraying, plants were put back in the greenhouse and water was withheld for twelve days, simulating drought stress. The plants were then watered to saturation for three consecutive days before the plant shoots were cut at the soil surface and subsequently weighed in grams (fresh weight). Leaf-rolling data and fresh weight data were recorded for each plant following treatment application at the times specified below in Table 6.” for “post-spraying.”

[4] = test system: soybean plants; assay: Soybean drought tolerance (stomatal conductance); details: for Reduction in stomatal conductance at 1 day post spraying: 300 mg/l foliar spray; for Percent Conductance (stomatal conductance, control = 100%), Day 1 / Percent Conductance (stomatal conductance, control = 100%), Day 2 / Percent Conductance (stomatal conductance, control = 100%), Day 5 / Percent Conductance (stomatal conductance, control = 100%), Day 6 / Percent Conductance (stomatal conductance, control = 100%), Day 7: foliar spray 300 mg/l, 0.3 mg/plant
Procedure: In this study, soybean plants were grown for 10 days under ambient lab temperature conditions and illumination of 150 umol m^2 s^−1 and a 16:8 photoperiod. At spraying, the primary leaves were fully expanded and the first trifoliate leaves were partially expanded. The plants were sprayed to dampness with solutions of water, S-ABA, 3′-methyl-(S)-abscisic acid, or 3′-propargyl-(S)-abscisic acid containing 0.025% (v/v) non-ionic surfactant. At times following spraying, the conductance of the primary leaves was measured using an AP4 porometer (Delta T Devices, Cambridge, UK) to evaluate the effect on stomatal conductance. A decrease in stomatal aperture, reflected in the conductance measures, is an immediate and direct effect of applied S-ABA. To simplify the data, the controls were always set to 100%. In Table 9, the effect of spray applications on the stomatal conductance was measured.

[5] = Table 3 study, foliar spray 30 mg/l (3.4 g/acre)
[6] = Table 3 study, foliar spray 100 mg/l (11.4 g/acre)
[7] = Table 3 study, foliar spray 300 mg/l (34.1 g/acre)
[8] = Table 3 study, foliar spray 1000 mg/l (113.7 g/acre)
[9] = foliar spray 100 ppm or 2.5 mg/plant
[10] = foliar spray 300 ppm or 7.5 mg/plant
[11] = foliar spray 1000 ppm or 25 mg/plant
[12] = Table 4 study, foliar spray 30 mg/l (3.4 g/acre)
[13] = Table 4 study, foliar spray 100 mg/l (11.4 g/acre)
[14] = Table 4 study, foliar spray 300 mg/l (34.1 g/acre)
[15] = Table 4 study, foliar spray 1000 mg/l (113.7 g/acre)

CC1=C(C)[C@](O)(/C=C/C(C)=C\C(=O)O)C(C)(C)CC1=O [3′-methyl-(S)-ABA, (2Z,4E)-5-((S)-1-hydroxy-2,3,6,6-tetramethyl-4-oxocyclohex-2-en-1-yl)-3-methylpenta-2,4-dienoic acid]
Maintenance of growth under cold (10° C.) conditions [1]: maintained growth | Growth Rate, Greenhouse 7-9 d post spray [1, 5]: 2.650 cm/day | Growth Rate, Greenhouse 0-2 d post spray ([1]; Table 3 study, foliar spray 30 mg/l (3.4 g/acre), before chilling): 3.725 cm/day | Growth Rate, Growth Chamber 10° C. 2-7 d post spray [1, 5]: 1.092 cm/day | Growth Rate, Greenhouse 7-9 d post spray [1, 6]: 2.795 cm/day | Growth Rate, Greenhouse 0-2 d post spray ([1]; Table 3 study, foliar spray 100 mg/l (11.4 g/acre), before chilling): 4.290 cm/day | Growth Rate, Growth Chamber 10° C. 2-7 d post spray [1, 6]: 1.084 cm/day | Growth Rate, Greenhouse 7-9 d post spray [1, 7]: 3.565 cm/day | Growth Rate, Greenhouse 0-2 d post spray ([1]; Table 3 study, foliar spray 300 mg/l (34.1 g/acre), before chilling): 3.645 cm/day | Growth Rate, Growth Chamber 10° C. 2-7 d post spray [1, 7]: 0.990 cm/day | Growth Rate, Greenhouse 7-9 d post spray [1, 8]: 2.945 cm/day | Growth Rate, Greenhouse 0-2 d post spray ([1]; Table 3 study, foliar spray 1000 mg/l (113.7 g/acre), before chilling): 3.615 cm/day | Growth Rate, Growth Chamber 10° C. 2-7 d post spray [1, 8]: 1.160 cm/day | Plant growth initially following spraying ([1]; before chilling): initially suppressed | Leaf area ([1]; in one of two studies, not repeatable across studies, 3′-methyl-(S)-abscisic acid at 30, 100 and 300 mg/liter): increased | Average Stomatal Conductance (% of Control), 6 DAS [2, 9]: 93.3 % of Control | Average Stomatal Conductance (% of Control), 16 DAS [2, 9]: 98.3 % of Control | Average Stomatal Conductance (% of Control), 6 DAS [2, 10]: 70.6 % of Control | Average Stomatal Conductance (% of Control), 16 DAS [2, 10]: 79.4 % of Control | Average Stomatal Conductance (% of Control), 6 DAS [2, 11]: 69.6 % of Control | Average Stomatal Conductance (% of Control), 16 DAS [2, 11]: 74.5 % of Control | Relative potency resulting in a 25% reduction in transpiration, times that seen with S-ABA [2]: 1.97 times | Shoot Fresh Weight, 15 DAS ([3]; 100 ppm or 2.5 mg/plant): 256.0 grams | Average # of Rolled Leaves/Plant, 5 DAS ([3]; 100 ppm or 2.5 mg/plant): 1.6 | Average # of Rolled Leaves/Plant, 6 DAS ([3]; 100 ppm or 2.5 mg/plant): 4.6 | Average # of Rolled Leaves/Plant, 8 DAS ([3]; 100 ppm or 2.5 mg/plant): 9.0 | Shoot Fresh Weight, 15 DAS ([3]; 300 ppm or 7.5 mg/plant): 276.6 grams | Average # of Rolled Leaves/Plant, 5 DAS ([3]; 300 ppm or 7.5 mg/plant): 2.0 | Average # of Rolled Leaves/Plant, 6 DAS ([3]; 300 ppm or 7.5 mg/plant): 3.6 | Average # of Rolled Leaves/Plant, 8 DAS ([3]; 300 ppm or 7.5 mg/plant): 8.4 | Shoot Fresh Weight, 15 DAS ([3]; 1000 ppm or 25 mg/plant): 373.4 grams | Average # of Rolled Leaves/Plant, 6 DAS ([3]; 1000 ppm or 25 mg/plant): 2.2 | Average # of Rolled Leaves/Plant, 8 DAS ([3]; 1000 ppm or 25 mg/plant): 7.2 | Reduction in stomatal conductance at 1 day post spraying [4]: 89% | Percent Conductance (stomatal conductance, control = 100%), Day 1 [4]: 11% | Percent Conductance (stomatal conductance, control = 100%), Day 2 [4]: 18% | Percent Conductance (stomatal conductance, control = 100%), Day 5 [4]: 36% | Percent Conductance (stomatal conductance, control = 100%), Day 6 [4]: 68% | Percent Conductance (stomatal conductance, control = 100%), Day 7 [4]: 79%

C#CCC1=C(C)[C@](O)(/C=C/C(C)=C\C(=O)O)C(C)(C)CC1=O [3′-propargyl-(S)-ABA, (2Z,4E)-5-((S)-1-hydroxy-2,6,6-trimethyl-4-oxo-3-(prop-2-yn-1-yl)cyclohex-2-en-1-yl)-3-methylpenta-2,4-dienoic acid]
Growth during stress recovery following cold ([1]; 3′-propargyl-(S)-ABA particularly between 11.4 and 113.7 g/acre, S-ABA at rates up to 1000 mg/liter (113.7 g/acre)): did aid growth during stress recovery | Maintenance of growth under cold (10° C.) conditions [1]: did not maintain growth under cold stress | Growth Rate, Greenhouse 7-9 d post spray [1, 12]: 1.978 cm/day | Growth Rate, Greenhouse 0-2 d post spray ([1]; Table 4 study, foliar spray 30 mg/l (3.4 g/acre), before chilling): 3.239 cm/day | Growth Rate, Growth Chamber 10° C. 2-7 d post spray [1, 12]: 1.258 cm/day | Growth Rate, Greenhouse 7-9 d post spray [1, 13]: 2.489 cm/day | Growth Rate, Greenhouse 0-2 d post spray ([1]; Table 4 study, foliar spray 100 mg/l (11.4 g/acre), before chilling): 2.294 cm/day | Growth Rate, Growth Chamber 10° C. 2-7 d post spray [1, 13]: 1.173 cm/day | Growth Rate, Greenhouse 7-9 d post spray [1, 14]: 2.500 cm/day | Growth Rate, Greenhouse 0-2 d post spray ([1]; Table 4 study, foliar spray 300 mg/l (34.1 g/acre), before chilling): 2.544 cm/day | Growth Rate, Growth Chamber 10° C. 2-7 d post spray [1, 14]: 1.033 cm/day | Growth Rate, Greenhouse 7-9 d post spray [1, 15]: 2.300 cm/day | Growth Rate, Greenhouse 0-2 d post spray ([1]; Table 4 study, foliar spray 1000 mg/l (113.7 g/acre), before chilling): 2.172 cm/day | Growth Rate, Growth Chamber 10° C. 2-7 d post spray [1, 15]: 0.787 cm/day | Average Stomatal Conductance (% of Control), 6 DAS [2, 9]: 80.6 % of Control | Average Stomatal Conductance (% of Control), 16 DAS [2, 9]: 87.7 % of Control | Average Stomatal Conductance (% of Control), 6 DAS [2, 10]: 74.3 % of Control | Average Stomatal Conductance (% of Control), 16 DAS [2, 10]: 77.9 % of Control | Average Stomatal Conductance (% of Control), 6 DAS [2, 11]: 56.0 % of Control | Average Stomatal Conductance (% of Control), 16 DAS [2, 11]: 59.0 % of Control | Relative potency resulting in a 25% reduction in transpiration, times that seen with S-ABA [2]: 4.83 times | Shoot Fresh Weight, 15 DAS ([3]; 100 ppm or 2.5 mg/plant): 263.9 grams | Average # of Rolled Leaves/Plant, 5 DAS ([3]; 100 ppm or 2.5 mg/plant): 1.8 | Average # of Rolled Leaves/Plant, 6 DAS ([3]; 100 ppm or 2.5 mg/plant): 3.8 | Average # of Rolled Leaves/Plant, 8 DAS ([3]; 100 ppm or 2.5 mg/plant): 7.2 | Shoot Fresh Weight, 15 DAS ([3]; 300 ppm or 7.5 mg/plant): 313.1 grams | Average # of Rolled Leaves/Plant, 5 DAS ([3]; 300 ppm or 7.5 mg/plant): 1.8 | Average # of Rolled Leaves/Plant, 6 DAS ([3]; 300 ppm or 7.5 mg/plant): 3.6 | Average # of Rolled Leaves/Plant, 8 DAS ([3]; 300 ppm or 7.5 mg/plant): 8.0 | Shoot Fresh Weight, 15 DAS ([3]; 1000 ppm or 25 mg/plant): 334.4 grams | Average # of Rolled Leaves/Plant, 5 DAS ([3]; 1000 ppm or 25 mg/plant): 0.0 | Average # of Rolled Leaves/Plant, 6 DAS ([3]; 1000 ppm or 25 mg/plant): 0.0 | Average # of Rolled Leaves/Plant, 8 DAS ([3]; 1000 ppm or 25 mg/plant): 7.0 | Reduction in stomatal conductance at 1 day post spraying [4]: 92% | Percent Conductance (stomatal conductance, control = 100%), Day 1 [4]: 8% | Percent Conductance (stomatal conductance, control = 100%), Day 2 [4]: 14% | Percent Conductance (stomatal conductance, control = 100%), Day 5 [4]: 33% | Percent Conductance (stomatal conductance, control = 100%), Day 6 [4]: 52% | Percent Conductance (stomatal conductance, control = 100%), Day 7 [4]: 57%
